Where a name gives a salt, the structure may show the parent alone.
molecular target: T1, human HSL (Homo sapiens, UniProt Q05469); experiment: Human Hormone-Sensitive Lipase (HSL) enzyme inhibition assay (colorimetric, DMPT substrate); assay type: biochemical; settings: read-out: HSL hum IC50
T1 construct: generate a full length human HSL ORF with a 3′-His6 tag; His6 (C); made in house; host or cells: High 5 insect cells (baculovirus, pFast-BAC)
T1 sequence (Q05469 1-1076): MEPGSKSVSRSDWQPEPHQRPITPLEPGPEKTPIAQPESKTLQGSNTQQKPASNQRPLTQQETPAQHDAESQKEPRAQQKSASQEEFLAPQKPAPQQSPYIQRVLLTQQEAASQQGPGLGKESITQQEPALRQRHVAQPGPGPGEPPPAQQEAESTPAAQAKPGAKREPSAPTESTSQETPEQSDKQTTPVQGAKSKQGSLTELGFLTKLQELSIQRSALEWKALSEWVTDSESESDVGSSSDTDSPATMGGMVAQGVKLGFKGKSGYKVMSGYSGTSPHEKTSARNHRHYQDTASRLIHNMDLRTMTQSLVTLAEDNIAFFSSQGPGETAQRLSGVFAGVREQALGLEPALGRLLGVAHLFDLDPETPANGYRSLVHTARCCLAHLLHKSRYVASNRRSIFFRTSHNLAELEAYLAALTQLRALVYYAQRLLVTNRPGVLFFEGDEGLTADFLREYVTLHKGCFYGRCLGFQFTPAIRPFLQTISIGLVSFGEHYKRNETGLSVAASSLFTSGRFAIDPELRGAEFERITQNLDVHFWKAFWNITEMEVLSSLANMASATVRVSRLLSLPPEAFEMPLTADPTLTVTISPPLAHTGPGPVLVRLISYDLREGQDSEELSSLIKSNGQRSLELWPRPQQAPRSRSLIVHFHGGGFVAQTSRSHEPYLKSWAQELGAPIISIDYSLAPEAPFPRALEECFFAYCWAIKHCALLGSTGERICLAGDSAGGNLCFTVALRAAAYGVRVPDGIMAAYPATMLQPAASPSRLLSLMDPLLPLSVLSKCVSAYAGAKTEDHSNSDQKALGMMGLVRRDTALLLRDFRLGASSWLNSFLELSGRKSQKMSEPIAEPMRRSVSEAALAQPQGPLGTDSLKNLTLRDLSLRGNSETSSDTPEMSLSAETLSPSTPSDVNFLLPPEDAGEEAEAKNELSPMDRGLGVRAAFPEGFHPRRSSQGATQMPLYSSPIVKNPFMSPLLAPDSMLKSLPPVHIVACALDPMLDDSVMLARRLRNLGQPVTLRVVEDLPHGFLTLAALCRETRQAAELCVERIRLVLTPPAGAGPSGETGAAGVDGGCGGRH
In short: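 Full-length human HSL carrying a C-terminal His6 tag was expressed in High 5 insect cells via baculovirus and purified on Ni-NTA. Compounds from 3-fold DMSO series were mixed with 1.5 mM DMPT substrate suspension in 100 mM MOPS pH 7.2 with 0.2 mg/ml fatty acid-free BSA, then enzyme (15 ug/ml) was added for 20 minutes at 37 °C. Released thiol was detected with DTNB plus SDS/Triton X-100 (15 minutes, room temperature) at 405 nm.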

| Structure (SMILES) | IC50 [µM] |
| --- | --- |
| CC(C)c1ccc(NC(=O)C2(N)CCN(C(=O)Nc3ccc(Cl)cc3)CC2)cc1 [Example 108, 4-Amino-piperidine-1,4-dicarboxylic acid 1-[(4-chloro-phenyl)-amide] 4-[(4-isopropyl-phenyl)-amide]; hydrochloride] | 0.1 |
| CC(C)(C)c1ccc(NC(=O)C2(O)CCN(C(=O)Nc3ccc(C(F)(F)F)cc3)CC2)cc1 [Example 15, 4-Hydroxy-piperidine-1,4-dicarboxylic acid 4-[(4-tert-butyl-phenyl)-amide] 1-[(4-trifluoromethyl-phenyl)-amide]] | 0.41 |
| Cc1ccc(S(=O)(=O)N2CCC(O)(C(=O)Nc3ccc(C(C)C)cc3)CC2)cc1 [Example 5, 4-Hydroxy-1-(toluene-4-sulfonyl)-piperidine-4-carboxylic acid (4-isopropyl-phenyl)-amide] | 0.21 |
| CCc1ccc(NC(=O)C2(N)CCN(S(=O)(=O)c3ccc(C(F)(F)F)cc3Cl)CC2)cc1 [Example 147, 4-Amino-1-(2-chloro-4-trifluoromethyl-benzenesulfonyl)-piperidine-4-carboxylic acid (4-ethyl-phenyl)-amide] | 0.43 |
| COc1ccc(Cl)cc1NC(=O)N1CCC(O)(C(=O)Nc2ccc(C(C)(C)C)cc2)CC1 [Example 50, 4-Hydroxy-piperidine-1,4-dicarboxylic acid 4-[(4-tert-butyl-phenyl)-amide] 1-[(5-chloro-2-methoxy-phenyl)-amide]] | 0.84 |
| CC(C)Oc1ccc(NC(=O)C2(O)CCN(Cc3ccc(OC(F)(F)F)cc3)CC2)cc1 [Example 14, 4-Hydroxy-1-(4-trifluoromethoxy-benzyl)-piperidine-4-carboxylic acid (4-isopropoxy-phenyl)-amide] | 0.6 |
| CC(C)c1ccc(NC(=O)C2(N)CCN(C(=O)c3ccc(C(F)(F)F)cc3)CC2)cc1 [Example 126, 4-Amino-1-(4-trifluoromethyl-benzoyl)-piperidine-4-carboxylic acid (4-isopropyl-phenyl)-amide] | 0.25 |
| CCc1ccc(NC(=O)C2(N)CCN(Cc3ccccc3OC(F)(F)F)CC2)cc1 [Example 156, 4-Amino-1-(2-trifluoromethoxy-benzyl)-piperidine-4-carboxylic acid (4-ethyl-phenyl)-amide] | 0.08 |
| CCc1ccc(NC(=O)C2(N)CCN(S(=O)(=O)c3ccccc3Cl)CC2)cc1 [Example 93, 4-Amino-1-(2-chloro-benzenesulfonyl)-piperidine-4-carboxylic acid (4-ethyl-phenyl)-amide] | 0.04 |
| CCc1ccc(NC(=O)C2(N)CCN(Cc3ccccc3OC(F)F)CC2)cc1 [Example 155, 4-Amino-1-(2-difluoromethoxy-benzyl)-piperidine-4-carboxylic acid (4-ethyl-phenyl)-amide] | 0.11 |
| O=C(Nc1ccc(OC(F)(F)F)cc1)C1(O)CCN(S(=O)(=O)c2cccs2)CC1 [Example 57, 4-Hydroxy-1-(thiophene-2-sulfonyl)-piperidine-4-carboxylic acid (4-trifluoromethoxy-phenyl)-amide] | 0.33 |
| NC1(C(=O)Nc2ccc(Cl)cc2)CCN(S(=O)(=O)c2ccccc2Cl)CC1 [Example 95, 4-Amino-1-(2-chloro-benzenesulfonyl)-piperidine-4-carboxylic acid (4-chloro-phenyl)-amide] | 0.19 |
| NC1(C(=O)Nc2cccc(C(F)(F)F)c2)CCN(S(=O)(=O)c2ccccc2Cl)CC1 [Example 91, 4-Amino-1-(2-chloro-benzenesulfonyl)-piperidine-4-carboxylic acid (3-trifluoromethyl-phenyl)-amide] | 0.71 |
| Cc1ccc(S(=O)(=O)N2CCC(O)(C(=O)N(C)c3ccc(OC(F)(F)F)cc3)CC2)cc1 [Example 69, 4-Hydroxy-1-(toluene-4-sulfonyl)-piperidine-4-carboxylic acid methyl-(4-trifluoromethoxy-phenyl)-amide] | 0.14 |
| NC1(C(=O)Nc2ccc3c(c2)CCC3)CCN(S(=O)(=O)c2ccccc2Cl)CC1 [Example 99, 4-Amino-1-(2-chloro-benzenesulfonyl)-piperidine-4-carboxylic acid indan-5-ylamide] | 0.06 |
| CC(C)(C)c1ccc(NC(=O)C2(O)CCN(Cc3ccccc3F)CC2)cc1 [Example 45, 1-(2-Fluoro-benzyl)-4-hydroxy-piperidine-4-carboxylic acid (4-tert-butyl-phenyl)-amide] | 0.08 |
| CC(C)(Oc1ccc(NC(=O)C2(N)CCN(S(=O)(=O)c3ccccc3Cl)CC2)cc1)C(F)(F)F [Example 102, 4-Amino-1-(2-chloro-benzenesulfonyl)-piperidine-4-carboxylic acid [4-(2,2,2-trifluoro-1,1-dimethyl-ethoxy)-phenyl]-amide] | 0.18 |
| O=C(Nc1ccc(OC(F)(F)F)cc1)C1(O)CCN(S(=O)(=O)c2ccccc2C(F)(F)F)CC1 [Example 64, 4-Hydroxy-1-(2-trifluoromethyl-benzenesulfonyl)-piperidine-4-carboxylic acid (4-trifluoromethoxy-phenyl)-amide] | 0.15 |

More lines, in order of falling IC50, values ahead:

| IC50 [µM] | Structure (SMILES) |
| --- | --- |
| 0.52 | CC(C)c1ccc(NC(=O)C2(N)CCN(C(=O)c3ccc(C(F)(F)F)nc3)CC2)cc1 [Example 130, 4-Amino-1-(6-trifluoromethyl-pyridine-3-carbonyl)-piperidine-4-carboxylic acid (4-isopropyl-phenyl)-amide] |
| 0.49 | CC(C)(C)c1ccc(NC(=O)C2(O)CCN(C(=O)c3ccc(F)cc3F)CC2)cc1 [Example 41, 1-(2,4-Difluoro-benzoyl)-4-hydroxy-piperidine-4-carboxylic acid (4-tert-butyl-phenyl)-amide] |
| 0.46 | CCc1ccc(NC(=O)C2(N)CCN(Cc3ccc(C(C)C)cc3)CC2)cc1 [Example 158, 4-Amino-1-(4-isopropyl-benzyl)-piperidine-4-carboxylic acid (4-ethyl-phenyl)-amide] |
| 0.45 | CC(C)c1ccc(NC(=O)C2(O)CCN(Cc3ccc(C(F)(F)F)cc3)CC2)cc1 [Example 9, 4-Hydroxy-1-(4-trifluoromethyl-benzyl)-piperidine-4-carboxylic acid (4-isopropyl-phenyl)-amide] |
| 0.37 | Cc1ccc(NC(=O)C2(N)CCN(C(=O)Nc3ccc(C(C)(C)C)cc3)CC2)cc1 [Example 88, 4-Amino-piperidine-1,4-dicarboxylic acid 1-[(4-tert-butyl-phenyl)-amide]-4-p-tolylamide; hydrochloride] |
| 0.3 | CC(C)c1ccc(NC(=O)C2(N)CCN(Cc3ccc(C(F)(F)F)cc3)CC2)cc1 [Example 112, 4-Amino-1-(4-trifluoromethyl-benzyl)-piperidine-4-carboxylic acid (4-isopropyl-phenyl)-amide; hydrochloride] |
| 0.2 | CN(C(=O)C1(O)CCN(S(=O)(=O)c2cccs2)CC1)c1ccc(OC(F)(F)F)cc1 [Example 66, 4-Hydroxy-1-(thiophene-2-sulfonyl)-piperidine-4-carboxylic acid methyl-(4-trifluoromethoxy-phenyl)-amide] |
| 0.19 | CC(C)Oc1ccc(NC(=O)C2(O)CCN(S(=O)(=O)c3ccccc3Cl)CC2)cc1 [Example 13, 1-(2-Chloro-benzenesulfonyl)-4-hydroxy-piperidine-4-carboxylic acid (4-isopropoxy-phenyl)-amide] |
| 0.11 | CCc1ccc(NC(=O)C2(N)CCN(Cc3ccccc3Cl)CC2)cc1 [Example 154, 4-Amino-1-(2-chloro-benzyl)-piperidine-4-carboxylic acid (4-ethyl-phenyl)-amide] |
| 0.1 | Cc1ccccc1S(=O)(=O)N1CCC(O)(C(=O)N(C)c2ccc(OC(F)(F)F)cc2)CC1 [Example 68, 4-Hydroxy-1-(toluene-2-sulfonyl)-piperidine-4-carboxylic acid methyl-(4-trifluoromethoxy-phenyl)-amide] |
| 0.09 | CCCCc1ccc(S(=O)(=O)N2CCC(N)(C(=O)Nc3ccc(CC)cc3)CC2)cc1 [Example 141, 4-Amino-1-(4-butyl-benzenesulfonyl)-piperidine-4-carboxylic acid (4-ethyl-phenyl)-amide] |
| 0.06 | CCCCc1ccc(NC(=O)C2(N)CCN(S(=O)(=O)c3ccccc3Cl)CC2)cc1 [Example 104, 4-Amino-1-(2-chloro-benzenesulfonyl)-piperidine-4-carboxylic acid (4-butyl-phenyl)-amide] |
